A short description of data set [1]: Evaluation of metabolic stability. It is filed as in vitro ADME, human. As to conditions: 0.2 mg/mL HLM, 0.1 μM test substance, 15 minutes at 37° C., with vs without NADPH production. As for the experimental part: A test substance was dissolved in DMSO so that the concentration of the resultant solution became 20 mM, and the solution was diluted with DMSO so that the concentration of the resultant solution became 1 mM. The metabolic stability of the test substance was evaluated using a human liver microsome (HLM) in which human liver was pooled. An assay buffer solution contained 0.2 mg/mL of HLM, a 0.1 M of phosphate potassium buffer solution (pH 7.4), 0.1 mM of EDTA, 0.33 mM of NADP+, 8 mM of glucose-6-phosphate, 0.1 U/mL of glucose-6-phosphate dehydrogenase, 6 mM of MgCl2, 0.1 μM of a test substance (final concentration in DMSO: 0.01%) in 0.15 mL of the final incubation volume. Fifteen minutes after the initiation of the reaction at 37° C., 0.15 mL of a acetonitrile/methanol mixed solution (7:3, by volume) was added to the solution to terminate the reaction. After centrifugation, the resultant supernatant was analyzed by LC-MSMS, peak areas were compared under the presence or absence of the production of NADPH, and the residual ratio of the test substance was calculated.

Data set [2] can be described thus: Evaluation of solubility (DMSO stock into PBS, HPLC-UV). It is filed as physicochemical. As to conditions: Dulbecco's phosphate-buffered saline pH 7, room temperature, about 15 minutes shaking, values greater than 200 μM regarded as 200 μM, read-out: Test Example 3 solubility. As for the experimental part:
To 0.25 mL of a test solution a mentioned below was added 2.5 μL of a DMSO solution having a compound concentration of 20 mM. The resultant solution was shaken at room temperature for about 15 minutes (the conditions for the shaking are mentioned below). Subsequently, a supernatant was collected by a suction filtration under a reduced pressure. A DMSO solution having a compound concentration of 200 μM was used as a standard solution, and the concentration of a compound in a filtrate which was quantified by a HPLC-UV method was employed as a solubility (rounded off to the whole number). In this evaluation, since a value 200 μM became the upper limit operationally, all of quantification values greater than 200 μM were regarded as 200 μM.
Test solution: GIBCO (registered trade name) Dulbecco's phosphate-buffered saline (pH 7, Life Technologies Corporation)
Conditions for shaking: a microplate shaker N-704 (Nissinrika Corporation), speed 6

A further data set concerns Wnt signal. Kind of data set: Detection of Wnt signal (TOPglow luciferase reporter, LiCl-stimulated). It is filed as cell-based. The following applies: Homo sapiens; HEK293 clone carrying pNeo-TOP reporter; LiCl stimulation; luciferase luminescence; read-out: Test Example 1 IC50 (concentration required for inhibiting the Wnt signal activity by 50%). As to the method:
pcDNA3.1(+) (invitrogen) was cleaved with restriction enzymes BglII and NotI, and an adapter BEHKS having a sequence shown below (containing restriction enzyme sites BglII, EcoRI, HindIII, KpnI, SacI and NotI) was inserted thereinto, thereby producing a plasmid pNeo-HKS.
Subsequently, a fragment having a length of about 2700 bp (containing a Wnt-responsive sequence and a luciferase gene), which was prepared by cleaving from a TOPglow plasmid contained in a TOPglow/FOPglow TCF Reporter Kit (upstate Catalog#17-366) with restriction enzymes HindIII and KpnI, was inserted between HindIII and KpnI in pNeo-HKS, thereby producing a plasmid pNeo-TOP. The plasmid pNeo-TOP was introduced into human fetus-derived renal cell strain HEK293, then a compound was selected using G418, and then a cell clone strain was established by a limiting dilution method. The cell clone strain was subjected to a Wnt signal detection test.
The cell clone strain was subcultured in a D-MEM glucose-rich culture medium (Wako Pure Chemical Industries, Ltd.) containing 10% FBS, and cells in a growth phase were used in the test. Cells were collected using trypsin-EDTA, the number of the cells was counted, and then the cells were suspended in a D-MEM glucose-rich culture medium containing 10% FBS so that the number of cells became 2×10^5 cells/mL. The cell suspension was added to a 96-well cell culture plate (Greiner Bio-One Co., Ltd., product number: 655083) in an amount of 0.1 mL/well and then cultured overnight in a 5% CO2 incubator (37° C.). After the culturing, a substance to be tested, which was dissolved in DMSO, was diluted with a D-MEM glucose-rich culture medium containing 10% of FBS and 80 mM of LiCl to produce a sample solution. The sample solution (0.1 mL) was added to each well and then cultured in a 5% CO2 incubator (37° C.) […]. Six hours after the addition of the sample solution, a supernatant was removed from each well, and then 50 μL of Bright-Glo™ Luciferase substrate (Promega, product number: E2620) was added thereto. The plate was put on a plate mixer for several seconds, and then the emission of light from each well was measured using a EnVision™ Multilabel plate reader (PerkinElmer Co., Ltd.). The Wnt signal activation rate (%) of each well was determined, and a concentration (IC50) which is required for inhibiting the Wnt signal activity of a substance of interest by 50% was calculated, wherein the luminosity of a well to which a sample solution was not added and LiCl was added was defined as a 100% Wnt signal activity and the luminosity of a well to which either of a sample solution or LiCl was not added was defined as a 0% Wnt signal activity.
(In a reporter assay the amount or activity of a reporter protein is the signal.)

Data set [3] in a line: PAMPA test (parallel artificial membrane permeability assay). As to conditions: phosphate buffer pH 6.8, about 200 μM, about 5 hours, room temperature, read-out: Test Example 4 membrane permeation coefficient Pe. It is filed as in vitro ADME. As for the experimental part: A test solution (see below) was stirred while shaking at room temperature for about 5 hours using a 96-well PAMPA plate (BD Biosciences) in which a lipid had been precoated onto a polyvinylidene fluoride (PVDF) film to evaluate the membrane permeation coefficient Pe (cm/s) of each compound dissolved in the test solution (concentration: about 200 μM) upon the transport of the compound from a donor side to an acceptor side through a lipid membrane. The Pe value was calculated in accordance with equations 1 and 2, and the concentration of the compound on the donor side and the acceptor side was measured by a HPLC-UV method. In 0.3 mL of the test solution on the donor side is contained about 1% (v/v) of DMSO, since 3 μL of a DMSO solution containing the compound at a concentration of 20 mM was added to the test solution.
Test solution: a phosphate buffer solution having a pH value of 6.8 (90 mM of phosphate, 48 mM of NaCl, 5.4 mM of KCl)
Conditions for stirring: a multishaker MS-300 (AS ONE Corporation), 350 rpm
[formula] CD(t): compound concentration in donor well at time t CA(t): compound concentration in acceptor well at time t VD: donor well volume (0.3 mL) VA: acceptor well volume (0.2 mL) A: filter area (0.3 cm^2)
In general terms: PAMPA measures passive passage across an artificial lipid membrane.

[4] abbreviates: aqueous buffer, kinetic from dmso stock.

SMILES strings stand for the structures. ≈ marks a conversion by molar mass, not a printed value. Like-named read-outs stand apart in the source and are kept apart here.

As a reminder, the solubility is how much of the substance goes into solution per volume.

Regarding `C=CCN1CC(=O)N2[C@@H](Cc3ccc(O)cc3F)C(=O)N(Cc3cccc(N4CC(N5CCN(C(C)C)CC5)C4)n3)C[C@@H]2N1C(=O)NCc1ccccc1` [Example 11, (6S,9aS)-N-Benzyl-6-((2-fluoro-4-hydroxyphenyl)methyl)-4,7-dioxo-2-(prop-2-en-1-yl)-8-((6-(3-(4-(propan-2-yl)piperazin-1-yl)azetidin-1-yl)pyridin-2-yl)methyl)-octahydro-1H-pyrazino[2,1-c][1,2,4]triazine-1-carboxamide], the “Test Example 2 residual ratio of the test substance” value (“Test Example 2 residual ratio” below) in data set [1] is 26%. Moreover, in data set [2] (setting [4]), the solubility was 192 µM (≈ 142 µg/mL). In addition, in the data set on Wnt signal, the IC50 is 39 nM. For the same compound, the Papp in data set [3] was 2.55 ×10⁻⁶ cm/s.

As for `C=CCN1CC(=O)N2[C@@H](Cc3ccc(O)cc3F)C(=O)N(Cc3cccc(N4CC(N(C)CCN5CCOCC5)C4)n3)C[C@@H]2N1C(=O)NCc1ccccc1` [Reference Example 5, (6S,9aS)-N-Benzyl-6-((2-fluoro-4-hydroxyphenyl)methyl)-8-((6-(3-(methyl(2-(morpholin-4-yl)ethyl)amino)azetidin-1-yl)pyridin-2-yl)methyl)-4,7-dioxo-2-(prop-2-en-1-yl)-octahydro-1H-pyrazino[2,1-c][1,2,4]triazine-1-carboxamide], the “Test Example 2 residual ratio” value in data set [1] is 22%. For the same compound, the solubility in data set [2] (setting [4]) was found to be 181 µM (≈ 137 µg/mL). Further, the IC50 with Wnt signal amounted to 130 nM. Besides, in data set [3], the Papp stood at 2.25 ×10⁻⁶ cm/s.

For the compound `C=CCN1CC(=O)N2[C@@H](Cc3c(F)cc(O)cc3F)C(=O)N(Cc3cccc(N4CC(N5CCN(C)C[C@@H]5C)C4)n3)C[C@@H]2N1C(=O)NCc1ccccc1` [Example 17, (6S,9aS)-N-Benzyl-6-((2,6-difluoro-4-hydroxyphenyl)methyl)-8-((6-(3-((2S)-2,4-dimethylpiperazin-1-yl)azetidin-1-yl)pyridin-2-yl)methyl)-4,7-dioxo-2-(prop-2-en-1-yl)-octahydro-1H-pyrazino[2,1-c][1,2,4]triazine-1-carboxamide], the “Test Example 2 residual ratio” value in data set [1] was found to be 60%. For the same compound, in data set [2] (setting [4]), the solubility worked out at 195 µM (≈ 145 µg/mL). Besides, in the data set with Wnt signal, the IC50 was determined as 210 nM. Besides, the Papp in data set [3] amounted to 0.89 ×10⁻⁶ cm/s.

Regarding `C=CCN1CC(=O)N2[C@@H](Cc3c(F)cc(O)cc3F)C(=O)N(Cc3cccc(N4CC(N5CCN(CC)[C@H](C)C5)C4)n3)C[C@@H]2N1C(=O)NCc1ccccc1` [Example 23, (6S,9aS)-N-Benzyl-6-((2,6-difluoro-4-hydroxyphenyl)methyl)-8-((6-(3-((3R)-4-ethyl-3-methylpiperazin-1-yl)azetidin-1-yl)pyridin-2-yl)methyl)-4,7-dioxo-2-(prop-2-en-1-yl)-octahydro-1H-pyrazino[2,1-c][1,2,4]triazine-1-carboxamide], the “Test Example 2 residual ratio” value in data set [1] came to 38%. Also, in data set [2] (setting [4]), the solubility is 195 µM (≈ 148 µg/mL). Also, the IC50 in the data set with Wnt signal stood at 190 nM. Besides, in data set [3], the Papp was determined as 0.43 ×10⁻⁶ cm/s.

As to `C=CCN1CC(=O)N2[C@@H](Cc3ccc(O)cc3F)C(=O)N(Cc3cccc(N4CC(N5CCN(C)CC5)C4)n3)C[C@@H]2N1C(=O)NCc1ccccc1` [Example 3, (6S,9aS)-N-Benzyl-6-((2-fluoro-4-hydroxyphenyl)methyl)-8-((6-(3-(4-methylpiperazin-1-yl)azetidin-1-yl)pyridin-2-yl)methyl)-4,7-dioxo-2-(prop-2-en-1-yl)-octahydro-1H-pyrazino[2,1-c][1,2,4]triazine-1-carboxamide], the “Test Example 2 residual ratio” value in data set [1] came out at 54%. In addition, the solubility in data set [2] worked out at 200 µM (≈ 142 µg/mL). In the data set with Wnt signal, the IC50 was 150 nM. The Papp in data set [3] stood at 1.33 ×10⁻⁶ cm/s.

Regarding `C=CCN1CC(=O)N2[C@@H](Cc3ccc(O)cc3F)C(=O)N(Cc3ccc(F)c(N4CC(N5CCC(N(C)C)CC5)C4)n3)C[C@@H]2N1C(=O)NCc1ccccc1` [Reference Example 3, (6S,9aS)-N-Benzyl-8-((6-(3-(4-(dimethylamino)piperidin-1-yl)azetidin-1-yl)-5-fluoropyridin-2-yl)methyl)-6-((2-fluoro-4-hydroxyphenyl)methyl)-4,7-dioxo-2-(prop-2-en-1-yl)-octahydro-1H-pyrazino[2,1-c][1,2,4]triazine-1-carboxamide], in data set [1], the “Test Example 2 residual ratio” value came to 50%. In addition, in data set [2] (setting [4]), the solubility amounted to 199 µM (≈ 151 µg/mL). The IC50 in the data set on Wnt signal was 110 nM. The Papp in data set [3] was determined as 0.55 ×10⁻⁶ cm/s.

Regarding `C=CCN1CC(=O)N2[C@@H](Cc3ccc(O)cc3F)C(=O)N(Cc3ccc(F)c(N4CC(N5C[C@@H]6C[C@H]5CN6C(C)C)C4)n3)C[C@@H]2N1C(=O)NCc1ccccc1` [Reference Example 4, (6S,9aS)-N-Benzyl-6-((2-fluoro-4-hydroxyphenyl)methyl)-8-((5-fluoro-6-(3-((1S,4S)-5-(propan-2-yl)-2,5-diazabicyclo[2.2.1]heptan-2-yl)azetidin-1-yl)pyridin-2-yl)methyl)-4,7-dioxo-2-(prop-2-en-1-yl)-octahydro-1H-pyrazino[2,1-c][1,2,4]triazine-1-carboxamide], the “Test Example 2 residual ratio” value in data set [1] was 34%. Also, the solubility in data set [2] (setting [4]) was 198 µM (≈ 152 µg/mL). Moreover, the IC50 in the data set with Wnt signal was 150 nM. For the same compound, the Papp in data set [3] was 0.68 ×10⁻⁶ cm/s.

As for `C=CCN1CC(=O)N2C(CN(Cc3cccc(N4CC(N5CCN(CC)[C@H](C)C5)C4)n3)C(=O)[C@@H]2Cc2ccc(O)cc2)N1C(=O)NCc1ccccc1` (stereo partly drawn) [Example 19, (6S,9aS)-N-Benzyl-8-((6-3-((3R)-4-ethyl-3-methylpiperazin-1-yl)azetidin-1-yl)pyridin-2-yl)methyl-6-((4-hydroxyphenyl)methyl)-4,7-dioxo-2-(prop-2-en-1-yl)-octahydro-1H-pyrazino[2,1-c][1,2,4]triazine-1-carboxamide], the “Test Example 2 residual ratio” value in data set [1] came out at 30%. Moreover, the solubility in data set [2] is 200 µM (≈ 144 µg/mL). In addition, the IC50 in the data set on Wnt signal came to 230 nM. For the same compound, the Papp in data set [3] stood at 0.91 ×10⁻⁶ cm/s.

These data come from patent US9174998B2, “(6S,9aS)-N-benzyl-6-[(4-hydroxyphenyl)methyl]-4,7-dioxo-8-({6-[3-(piperazin-1-yl)azetidin-1-yl]pyridin-2-yl}methyl)-2-(prop-2-en-1-yl)-octahydro-1H-pyrazino[2,1-c][1,2,4]triazine-1-carboxamide compound” (Eisai R&D Management Co., Ltd., priority 2013, dated 2015).
